Measurements from patent publication US9145346B1, “Process for 2,2,4,4-tetramethylcyclobutane-1,3-diol crystallization” (Eastman Chemical Company, priority 2014, dated 2015).

Assay: Solubility (saturated concentration) of cis-TMCD and trans-TMCD in various solvents, by gas chromatography
Type: physicochemical
Method: All concentrations were measured by gas chromatography. Water concentration was measured by Karl Fischer titrations.
The solubility of cis-TMCD and trans-TMCD in various solvents was determined by charging cis-TMCD, trans-TMCD, and the solvent or solvents of interest into a 120 ml jacketed glass vessel. The vessel was equipped with a stir bar in order to provide mixing and the jacket was used to control the temperature of the vessel contents. The vessel was equipped with charging and sampling ports on top of the vessel.
The slurry was allowed to stand for a time sufficient for the solids to saturate the solvent at the desired temperature. At that time, a sample of the solution was withdrawn from the cell using a fritted pipette so as to remove only the liquid phase. The sample was analyzed for cis-TMCD and trans-TMCD isomer content. These values represent the saturated concentration of each isomer at the sampling temperature.
After this, the cell contents were heated to the next desired temperature and the contents were held for another time interval sufficient to allow the slurry to equilibrate. A sample was then taken of the solution and analyzed. Following this procedure, solubility data was collected up to the final desired temperature.
The reported solubility of each isomer at a given temperature for a given solvent is expressed as a weight % relative to the saturated concentration of the isomer at the highest temperature reported for a given solvent.

In the case of `CC1(C)[C@H](O)C(C)(C)[C@@H]1O` [cis-TMCD, cis-2,2,4,4-tetramethylcyclobutane-1,3-diol], the Relative solubility (Methanol, 41.3° C., relative to 41.3° C.) was 100% relative wt %, the Relative solubility (Methanol, −2.5° C., relative to 41.3° C.) was 77% relative wt % and the Relative solubility (Methyl Acetate, 5.9° C., relative to 49.8° C.) was 15% relative wt %. The Relative solubility (Methyl Acetate, 15.5° C., relative to 49.8° C.) was 22% relative wt %, the Relative solubility (Methyl Acetate, 25.1° C., relative to 49.8° C.) was 33% relative wt % and the Relative solubility (Methyl Acetate, 40.5° C., relative to 49.8° C.) was 59% relative wt %. For the same molecule, the Relative solubility (Methyl Acetate, 49.8° C., relative to 49.8° C.) was 100% relative wt %, the Relative solubility (Methyl Acetate, −5.0° C., relative to 49.8° C.) was 9% relative wt % and the Relative solubility (Methyl i-Butyl Carbinol, 9.4° C., relative to 81.9° C.) was 20% relative wt %. The Relative solubility (Methyl i-Butyl Carbinol, 20.4° C., relative to 81.9° C.) was 25% relative wt %, the Relative solubility (Methyl i-Butyl Carbinol, 31.1° C., relative to 81.9° C.) was 31% relative wt % and the Relative solubility (Methyl i-Butyl Carbinol, 40.0° C., relative to 81.9° C.) was 40% relative wt %. For the same molecule, the Relative solubility (Methyl i-Butyl Carbinol, 49.5° C., relative to 81.9° C.) was 49% relative wt %, the Relative solubility (Methyl i-Butyl Carbinol, 60.0° C., relative to 81.9° C.) was 62% relative wt % and the Relative solubility (Methyl i-Butyl Carbinol, 69.5° C., relative to 81.9° C.) was 78% relative wt %. For the same molecule, the Relative solubility (Methyl i-Butyl Carbinol, 81.9° C., relative to 81.9° C.) was 100% relative wt %, the Relative solubility (i-Butyl Acetate, 4.8° C., relative to 90.1° C.) was 5% relative wt % and the Relative solubility (i-Butyl Acetate, 16.9° C., relative to 90.1° C.) was 8% relative wt %. For the same molecule, the Relative solubility (i-Butyl Acetate, 25.6° C., relative to 90.1° C.) was 11% relative wt %, the Relative solubility (i-Butyl Acetate, 41.3° C., relative to 90.1° C.) was 19% relative wt % and the Relative solubility (i-Butyl Acetate, 56.2° C., relative to 90.1° C.) was 32% relative wt %. For the same molecule, the Relative solubility (i-Butyl Acetate, 70.2° C., relative to 90.1° C.) was 52% relative wt %, the Relative solubility (i-Butyl Acetate, 90.1° C., relative to 90.1° C.) was 100% relative wt % and the Relative solubility (i-Butyl Acetate, −2.5° C., relative to 90.1° C.) was 5% relative wt %. The Relative solubility (n-Butanol, 5.9° C., relative to 60.5° C.) was 46% relative wt %, the Relative solubility (n-Butanol, 15.5° C., relative to 60.5° C.) was 51% relative wt % and the Relative solubility (n-Butanol, 25.1° C., relative to 60.5° C.) was 59% relative wt %. It also gave a Relative solubility (n-Butanol, 40.5° C., relative to 60.5° C.) of 73% relative wt %, a Relative solubility (n-Butanol, 49.8° C., relative to 60.5° C.) of 86% relative wt % and a Relative solubility (n-Butanol, 49.9° C., relative to 60.5° C.) of 86% relative wt %. The Relative solubility (n-Butanol, 60.5° C., relative to 60.5° C.) was 100% relative wt %, the Relative solubility (n-Butanol, −5.0° C., relative to 60.5° C.) was 41% relative wt % and the Relative solubility (n-Butyl Propionate, 6.5° C., relative to 91.9° C.) was 4% relative wt %. It also gave a Relative solubility (n-Butyl Propionate, 16.8° C., relative to 91.9° C.) of 7% relative wt %, a Relative solubility (n-Butyl Propionate, 27.7° C., relative to 91.9° C.) of 10% relative wt % and a Relative solubility (n-Butyl Propionate, 41.7° C. (sample 4), relative to 91.9° C.) of 17% relative wt %. The Relative solubility (n-Butyl Propionate, 41.7° C. (sample 5), relative to 91.9° C.) was 18% relative wt %, the Relative solubility (n-Butyl Propionate, 52.0° C., relative to 91.9° C.) was 27% relative wt % and the Relative solubility (n-Butyl Propionate, 61.5° C., relative to 91.9° C.) was 37% relative wt %. It also gave a Relative solubility (n-Butyl Propionate, 69.1° C., relative to 91.9° C.) of 50% relative wt %, a Relative solubility (n-Butyl Propionate, 80.7° C., relative to 91.9° C.) of 74% relative wt % and a Relative solubility (n-Butyl Propionate, 91.9° C., relative to 91.9° C.) of 100% relative wt %. It also gave a Relative solubility (n-Propyl Propionate, 7.0° C., relative to 72.2° C.) of 10% relative wt %, a Relative solubility (n-Propyl Propionate, 17.1° C., relative to 72.2° C.) of 14% relative wt % and a Relative solubility (n-Propyl Propionate, 26.7° C., relative to 72.2° C.) of 21% relative wt %. The Relative solubility (n-Propyl Propionate, 37.4° C., relative to 72.2° C.) was 30% relative wt %, the Relative solubility (n-Propyl Propionate, 42.4° C., relative to 72.2° C.) was 34% relative wt % and the Relative solubility (n-Propyl Propionate, 52.2° C., relative to 72.2° C.) was 50% relative wt %. The Relative solubility (n-Propyl Propionate, 62.9° C., relative to 72.2° C.) was 72% relative wt % and the Relative solubility (n-Propyl Propionate, 72.2° C., relative to 72.2° C.) was 100% relative wt %.
